Laboratory results published in patent US6372766B1, “Substituted 2-(2′-pyridyloxy)phenylacetamides, as fungicides and pesticides” (priority 1997, dated 2002).

system: Puccinia recondita; assay: Action against Puccinia recondita on wheat (wheat leaf rust); assay type: in vivo; settings: 63 ppm; wheat "Frühgold"; sprayed the day after infection; 7 days; untreated plants 75%

Compound | infection (extent of rust fungus development on leaves)
CNC(=O)/C(=N/OC)c1ccccc1COc1ncc(C(F)(F)F)cc1F [I-1, α-anti-methoxyimino-N-methyl-2-(3-fluoro-5-trifluoromethyl-2-pyridyloxy)methylphenyl-acetamide] | no infection
CNC(=O)/C(=N/OC)c1ccccc1COc1ncc(C(F)(F)F)cc1C [I-2, α-anti-methoxyimino-N-methyl-2-(3-methyl-5-trifluoromethyl-2-pyridyloxy)methyl-phenylacetamide] | no infection
CNC(=O)/C(=N/OC)c1ccccc1COc1nc(Cl)ccc1C(F)(F)F [I-3] | no infection
CNC(=O)/C(=N/OC)c1ccccc1COc1nc(Cl)c(C(F)(F)F)cc1Cl [I-6] | no infection
CNC(=O)/C(=N/OC)c1ccccc1COc1ncc(C(F)F)cc1Cl [I-8] | no infection

system: Nephotettix cincticeps; assay: Action against Nephotettix cincticeps (green rice leafhopper), contact action; assay type: in vivo; settings: treated filter paper dishes, adult leafhoppers, mortality after 24 hours
Description: The active compounds were formulated
a. as a 0.1% solution in acetone or
b. as a 10% emulsion in a mixture of 70% by weight of cyclohexanone, 20% by weight of Nekanil® LN (Lutensol® AP6, wetting agent having emulsifying and dispersing action based on ethoxylated alkylphenols) and 10% by weight of Wettol® EM (nonionic emulsifier based on ethoxylated castor oil)
and diluted in the case of a. with acetone and in the case of b. with water to give the desired concentration.
After the experiments had ended, in each case the lowest concentration was determined at which the compounds still caused an 80 to 100% inhibition or mortality in comparison with untreated control experiments (critical or minimal concentration).
Filter paper dishes (Ø 9 cm) were treated with 1 ml of aqueous preparations of active compounds and subsequently populated with five adult leafhoppers. After 24 hours, the mortality was determined.

Compound | critical concentration (lowest concentration still causing 80 to 100% inhibition or mortality) [mg]
CNC(=O)/C(=N/OC)c1ccccc1COc1ncc(C(F)(F)F)cc1C [I-2, α-anti-methoxyimino-N-methyl-2-(3-methyl-5-trifluoromethyl-2-pyridyloxy)methyl-phenylacetamide] | 0.2
